We go through 9 molecules from patent publication US20260256789A1, “METHODS FOR TREATMENT OF CANCER” (Frontier Medicines Corporation, priority 2022, published 2026).

Broadly, the IC50 is the concentration needed to halve the response being measured.

Some results are limits rather than exact numbers.

The target in this test is T1, KRAS G12C (GMPPNP-loaded) and cRAF Ras-binding domain (Homo sapiens, UniProt P01116, C118S/C51S/C80L/G12C).
T1 construct: truncated version comprising amino acids 1-169
T1 sequence (P01116 1-169 isoform P01116-2 G12C/C51S/C80L/C118S): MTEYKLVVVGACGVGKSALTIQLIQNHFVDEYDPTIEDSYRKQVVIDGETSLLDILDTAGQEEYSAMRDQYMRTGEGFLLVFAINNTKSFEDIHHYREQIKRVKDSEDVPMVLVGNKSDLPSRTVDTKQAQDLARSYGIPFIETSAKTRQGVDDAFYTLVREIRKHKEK
The test is described as follows: Inhibition of KRAS G12C and cRAF binding (AlphaScreen). Particulars: KRAS G12C preloaded with GTP analogue GMPPNP, 2 hours preincubation. In a few lines: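 Compounds (10-point, 1:3 from 50 μM; 2% DMSO) were incubated 2 h at room temperature with 0.5 nM GMPPNP-preloaded truncated Cys-light KRAS G12C, then 60-90 min with 0.75 nM GST-RBD of cRAF and AlphaScreen beads. Signal at 570 nm gave IC50 by 4-parameter regression, and a biotin-AviTag-GST counter assay excluded interference with the AlphaScreen readout.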
On the technique in general: In Alpha technology, singlet oxygen from a donor bead excites a nearby acceptor bead.
Take `CN(c1nc(OC[C@@]23CCCN2C[C@H](F)C3)nc2c(F)c(-c3cccc(Cl)c3C3CC3)ncc12)[C@@H]1CCN(C(=O)/C=C/CN2C3COCC2C3)C1` [Example 256]: the IC50 lay within 10 to 100 nM. As for `CN(c1nc(OC[C@@]23CCCN2C[C@H](F)C3)nc2c(F)c(-c3cccc(Cl)c3C3CC3)ncc12)[C@@H]1CCN(C(=O)C#CCN2CC3CCC(C2)O3)C1` [Example 257], the figure is 10 to 100 nM; as for `Cc1ncc(F)c(/C=C/C(=O)N2CC[C@@H](N(C)c3nc(OC[C@@]45CCCN4C[C@H](F)C5)nc4c(F)c(-c5cccc(Cl)c5C5CC5)ncc34)C2)n1` [Example 258], 100 to 500 nM. In turn, `C=CC(=O)N1CC[C@@H](N(C)c2nc(OC[C@@]34CCCN3C[C@H](F)C4)nc3c(F)c(-c4cc(F)cnc4C4CC4)ncc23)C1` [Example 259] registered an IC50 of no less than 500 nM. Under `C=CC(=O)N1CC[C@@H](N(C)c2nc(OC[C@@]34CCCN3C[C@H](F)C4)nc3c(F)c(-c4cncnc4C4CC4)ncc23)C1` [Example 260] stands no less than 500 nM.

In the case of `C=CC(=O)N1CC[C@@H](N(C)c2nc(OC[C@@]34CCCN3C[C@H](F)C4)nc3c(F)c(-c4nc(N)ccc4OC(F)F)ncc23)C1` [Example 261], the IC50 was no less than 500 nM. Consider `CN(c1nc(OC[C@@]23CCCN2C[C@H](F)C3)nc2c(F)c(-c3cccc(Cl)c3C3CC3)ncc12)[C@@H]1CCN(C(=O)/C=C/CN2CC[C@@H](F)C2)C1` [Example 262], for which the IC50 lay in the range of 10 to 100 nM. With `C=CC(=O)N1CC[C@@H](N(C)c2nc(OC[C@@]34CCCN3C[C@H](F)C4)nc3c(F)c(-c4cc(C(F)F)cc(Cl)c4C4CC4)ncc23)C1` [Example 263], the IC50 was no less than 500 nM. For `C=CC(=O)N1CC[C@@H](N(C)c2nc(OC[C@@]34CCCN3C[C@H](F)C4)nc3c(F)c(-c4cccc5cn[nH]c45)ncc23)C1` [Example 264], the IC50 is no less than 500 nM.
